Assay results: patent US4652548A (Eli Lilly and Company, priority 1984, dated 1987)

Assays:
hepatic glucose output = assay: Euglycemic glucose-clamp: suppression of hepatic glucose output; assay type: in vivo, human
Procedure: J. Physiol. 237:E214-E223 (1979). With this technique, an antecuubital vein is cannulated in an antegrade manner to administer the infusates. A dorsal hand vein is cannulated in a retrograde fashion and kept in a warming device (70° C.) to facilitate venous sampling and provide arterialized venous blood After insertion of the catheters, [3-3H]-glucose is infused for at least 30 minutes before initiating the hormone infusion. At the onset of hormone infusion, a priming dose of either insulin or proinsulin is administered during the initial 10 minutes in a logarithmically decreasing manner to acutely raise the serum hormone level. […] The overall glucose disposal rate is assessed isotopically for each 20 minute interval of the study.
(§1) Each subject underwent a total of 8 euglycemic glucose clamp studies, each performed on a separate day. […] Hepatic glucose output was quantitated in the basal state and during each clamp study using a primed continuous infusion of [3-3H]glucose. […] The dose response relationship for insulin and proinsulin mediated suppression of hepatic glucose output was determined by calculating the percent suppression of basal hepatic glucose output at each steady state hormone concentration obtained during the euglycemic clamp studies.

[1] = Euglycemic glucose-clamp: steady state serum hormone levels; assay type: in vivo, human
Procedure: J. Physiol. 237:E214-E223 (1979). With this technique, an antecuubital vein is cannulated in an antegrade manner to administer the infusates. A dorsal hand vein is cannulated in a retrograde fashion and kept in a warming device (70° C.) to facilitate venous sampling and provide arterialized venous blood After insertion of the catheters, [3-3H]-glucose is infused for at least 30 minutes before initiating the hormone infusion. At the onset of hormone infusion, a priming dose of either insulin or proinsulin is administered during the initial 10 minutes in a logarithmically decreasing manner to acutely raise the serum hormone level. The amount of insulin or proinsulin given during this initial 10 minute period is roughly twice that given during each subsequent 10 minute interval by a continuous hormone infusion The serum glucose is maintained between 80 and 90 mg/dl throughout the study period with a coefficient of variation of less than 5% by means of a variable rate of infusion of 20% dextrose. The overall glucose disposal rate is assessed isotopically for each 20 minute interval of the study.
as §1, with “day. Insulin infusion rates of 15, 40, 120, and 240 mU/M2/min were utilized to construct a dose response curve for insulin action. With this approach an attempt was made to achieve steady state insulin concentrations of 40 to 800 μU/ml (Table 1). Each subject was also studied with four different proinsulin infusions.” for “day.”

glucose disposal = assay: Euglycemic glucose-clamp: glucose disposal rate; assay type: in vivo, human
Procedure: On one day, each subject received a 5.0 μg/M^2 /min (120 mU/M^2 /min) insulin infusion over a 6 hour period. […] Each proinsulin infusion was carried out for 300 minutes, with the quantitation of its biological effects based on measurements made during the 5th hour of each study. […]

HGO = tested on: HGO
From the text: For example, in non-insulin dependent diabetes mellitus (NIDDM), one of the major metabolic abnormalities that maintains the resultant hyperglycemic state is accelerated hepatic glucose production.

[2] = tested on: fasting Type II diabetic patients; assay: Subcutaneous administration to fasting Type II diabetic patients: plasma glucose; assay type: in vivo, human; conditions: for Plasma Glucose, Mean: mean total dose 18.7 I.U. (0.2 U/kg s.c.)
[3] = Study A (insulin 15 mU/M^2/min, proinsulin 2.75 μg/M^2/min), Mean ± SE

## human proinsulin: human proinsulin, available by organic synthesis, isolation from human pancreas or recombinant DNA methodology
Hepatic glucose output; [3]
  Suppression of Hepatic Glucose Output (%): 80 ± 6%
Hepatic glucose output; healthy subjects, steady state, euglycemic clamp
  Serum hormone concentration required to achieve 90% suppression of hepatic glucose output: 3.35 pmol/mL
[1]; infusion A: insulin 0.63, proinsulin 2.75 μg/M^2/min
  Steady State Hormone Levels (Mean ± SEM): 2.55 ± 0.16 pmol/mL
[1]; infusion B: insulin 1.67, proinsulin 7.5 μg/M^2/min
  Steady State Hormone Levels (Mean ± SEM): 6.24 ± 0.49 pmol/mL
[1]; infusion C: insulin 5.0, proinsulin 22.5 μg/M^2/min
  Steady State Hormone Levels (Mean ± SEM): 21.2 ± 1.4 pmol/mL
[1]; infusion D: insulin 10.0, proinsulin 45.0 μg/M^2/min
  Steady State Hormone Levels (Mean ± SEM): 40.0 ± 1.9 pmol/mL
Glucose disposal; 5 subjects, insulin 5.0 μg/M^2/min over 6 h, proinsulin 22.5 μg/M^2/min over 8 h
  Time to reach steady state rates of glucose disposal: ≤ 5 h
Glucose disposal; [3]
  Glucose Disposal Rate: 122 ± 11 mg/M^2/min
HGO; circulating concentration approximately 1.5-2 pmol/ml
  Expected suppression of HGO in NIDDM subjects: approximately 50%
HGO; sustained level 1.5-2 pmol/ml for about 3 hours by CSII or single s.c. injection
  Expected duration of adequate glycemic control: 8 to 10 h
[2]; 0.2 U/kg s.c., normal range about 80-110 mg/dl
  Blood glucose level of each subject: lowered to a normal range
[2]; five Type II subjects, 0.2 U/kg s.c., insulin: by approximately 300 minutes
  Hypoglycemia among subjects: hypoglycemia nowhere evidenced
[2]; mean of subjects with values, 360 min after injection
  Plasma Glucose, Mean: 102 mg/dL
[2]; mean of subjects with values, 400 min after injection
  Plasma Glucose, Mean: 95 mg/dL
[2]; mean of subjects with values, 440 min after injection
  Plasma Glucose, Mean: 92 mg/dL
[2]; mean of subjects with values, 480 min after injection
  Plasma Glucose, Mean: 96 mg/dL
[2]; mean of subjects, 0 min after injection
  Plasma Glucose, Mean: 245 mg/dL
[2]; mean of subjects, 40 min after injection
  Plasma Glucose, Mean: 235 mg/dL
[2]; mean of subjects, 80 min after injection
  Plasma Glucose, Mean: 221 mg/dL
[2]; mean of subjects, 120 min after injection
  Plasma Glucose, Mean: 205 mg/dL
[2]; mean of subjects, 160 min after injection
  Plasma Glucose, Mean: 188 mg/dL
[2]; mean of subjects, 280 min after injection
  Plasma Glucose, Mean: 129 mg/dL
[2]; mean of subjects, 300 min after injection
  Plasma Glucose, Mean: 113 mg/dL
[2]; subject four, total dose 16.3 I.U. (0.2 U/kg s.c.), 0 min after injection
  Plasma Glucose: 290 mg/dL
[2]; subject four, total dose 16.3 I.U. (0.2 U/kg s.c.), 40 min after injection
  Plasma Glucose: 282 mg/dL
[2]; subject four, total dose 16.3 I.U. (0.2 U/kg s.c.), 80 min after injection
  Plasma Glucose: 272 mg/dL
[2]; subject four, total dose 16.3 I.U. (0.2 U/kg s.c.), 120 min after injection
  Plasma Glucose: 250 mg/dL
[2]; subject four, total dose 16.3 I.U. (0.2 U/kg s.c.), 160 min after injection
  Plasma Glucose: 230 mg/dL
[2]; subject four, total dose 16.3 I.U. (0.2 U/kg s.c.), 200 min after injection
  Plasma Glucose: 200 mg/dL
[2]; subject four, total dose 16.3 I.U. (0.2 U/kg s.c.), 240 min after injection
  Plasma Glucose: 183 mg/dL
[2]; subject four, total dose 16.3 I.U. (0.2 U/kg s.c.), 280 min after injection
  Plasma Glucose: 152 mg/dL
[2]; subject four, total dose 16.3 I.U. (0.2 U/kg s.c.), 300 min after injection
  Plasma Glucose: 127 mg/dL
[2]; subject four, total dose 16.3 I.U. (0.2 U/kg s.c.), 360 min after injection
  Plasma Glucose: 101 mg/dL
[2]; subject four, total dose 16.3 I.U. (0.2 U/kg s.c.), 400 min after injection
  Plasma Glucose: 82 mg/dL
[2]; subject four, total dose 16.3 I.U. (0.2 U/kg s.c.), 440 min after injection
  Plasma Glucose: 77 mg/dL
[2]; subject one, total dose 14.8 I.U. (0.2 U/kg s.c.), 0 min after injection
  Plasma Glucose: 213 mg/dL
[2]; subject one, total dose 14.8 I.U. (0.2 U/kg s.c.), 40 min after injection
  Plasma Glucose: 203 mg/dL
[2]; subject one, total dose 14.8 I.U. (0.2 U/kg s.c.), 80 min after injection
  Plasma Glucose: 187 mg/dL
[2]; subject one, total dose 14.8 I.U. (0.2 U/kg s.c.), 160 min after injection
  Plasma Glucose: 140 mg/dL
[2]; subject one, total dose 14.8 I.U. (0.2 U/kg s.c.), 240 min after injection
  Plasma Glucose: 81 mg/dL
[2]; subject one, total dose 14.8 I.U. (0.2 U/kg s.c.), 280 min after injection
  Plasma Glucose: 77 mg/dL
[2]; subject one, total dose 14.8 I.U. (0.2 U/kg s.c.), 300 min after injection
  Plasma Glucose: 80 mg/dL
[2]; subject one, total dose 14.8 I.U. (0.2 U/kg s.c.), 320 min after injection
  Plasma Glucose: 80 mg/dL
[2]; subject three, total dose 27.2 I.U. (0.2 U/kg s.c.), 0 min after injection
  Plasma Glucose: 159 mg/dL
[2]; subject three, total dose 27.2 I.U. (0.2 U/kg s.c.), 40 min after injection
  Plasma Glucose: 144 mg/dL
